# Source: patent publication US20160376659A1, “Breast Cancer Biomarker” (The University of Manchester, priority 2015, published 2016)
# Assays:
# [1] = test system: CBF1-Notch transcriptional activity; assay: Notch transcriptional assay (10×CBF1-luciferase reporter); assay type: cell-based, human; settings: TAMR and FULVR cell lines; 72 h
# Description: MCF7 resistant cell lines were authenticated by comparative karyotyping to ATCC-derived MCF7. To measure the activation of Notch dependent transcription, cells were transfected with CBF1 firefly luciferase reporter (containing 10 copies of a CBF1 consensus sequence) and CMV-Renilla luciferase reporter. Plasmids were incubated with […] (Roche, 06366244001) in a ratio of 3:1 (μl of […] of DNA) in OptiMEM (Life Technologies, 11058-021) for 15 minutes, before addition to the culture media. After 48 hours cells were lysed with 1× Passive lysis buffer (5×, Promega, E 1941), put on the rocker for 15 minutes and luminescence was assayed with the Dual-Glo Luciferase assay system (Promega, E2920) following manufacturer's instructions. Luciferase activity was measured using a luminometer (Promega, Glomax Multi+ Detection System with Instinct Software). Luminescence of the firefly luciferase was normalised to that of the renilla luciferase.
# CD44^+CD24^low+ BCSCs = settings: Azzam et al., 2013; cited from earlier work
# [2] = test system: NOTCH4 intracellular domain; assay: NOTCH4 intracellular domain Western Blot in MCF-7 endocrine-resistant cells; assay type: cell-based, human; settings: endocrine-resistant models; 72 h
# Description: MCF7, T47D and ZR-75-1 cell lines were purchased from American Tissue Culture Collection (ATCC) and cultured in DMEM/F-12, GlutaMAX (Gibco) with 10% FBS (Gibco). […] MCF7 resistant cell lines were authenticated by comparative karyotyping to ATCC-derived MCF7. Proteins were extracted with Protein Lysis Buffer (25 mM HEPES, 50 mM NaCl, 30 mM NaPP, 50 mM NaF, 1% Triton-X-100, 10% Glycerol, 5 mM EDTA, Protease Inhibitor cocktail, 1 μM PMSF). Lysates were placed on a rotator for 1 hour at 4° C., then were centrifuged at 10000 g at 4° C. for 10 min, and supernatants were collected. Protein concentrations were assessed using the BCA Protein Assay Kit (Thermo Scientific, 23225). Proteins were separated on a 10% gel (Biorad, 456-1033) by SDS-PAGE at 200V for 1 hour, and then were transferred on polyvinylidene difluoride (PVDF) membranes (BioRad, 170-4157) at 25 V/1,300 mA for 15 min using a Trans Blot Turbo (BioRad, 170-4155). Membranes were blocked in a solution of PBS containing 0.05% Tween-20 and 5% skimmed milk (Marvel) for 1 h at room temperature and primary antibodies were incubated overnight at 4° C. […]
# [3] = test system: Notch target genes HEY1 and HES1; assay: HEY1 and HES1 expression in TAMR, FULVR and parental MCF-7 cells; assay type: cell-based, human; settings: TAMR and FULVR cell lines; 72 h
# Description: MCF7, T47D and ZR-75-1 cell lines were purchased from American Tissue Culture Collection (ATCC) and cultured in DMEM/F-12, GlutaMAX (Gibco) with 10% FBS (Gibco). […] MCF7 resistant cell lines were authenticated by comparative karyotyping to ATCC-derived MCF7. Total RNA was extracted using the RNeasy Plus Mini Kit (QIAGEN, 74104) and the concentration and purity determined using an ND-1000 spectrophotometer (NanoDrop Technologies). Reverse transcription of 1 μg of RNA was performed with Oligo(dT) using the TaqMan Reverse Transcription Reagents from Applied Biosystems (N8080234). Samples were incubated on a thermal cycler (MJ Research) for 10 minutes at 25° C., 30 minutes at 48° C. and 5 minutes at 95° C. Quantitative real-time PCR reactions were set up in triplicate in 384-well plates and performed on the 7900 PCR machine (Applied Biosystems) using TaqMan® Universal PCR Master Mix (Applied Biosystems) and probes from Universal Probe Library (Roche). Conditions used for amplification of cDNA fragments were as follows: 95° C. for 5 min, 40 cycles of amplification-95 C for 15 sec, 60 C for 1 min. The expression levels were calculated using the ΔΔCt method and normalised to the housekeeping genes 36B4 and GAPDH. The sequences of the primers and probes used can be found in the table below.
# ALDH1A1 = settings: short-term administration to patients; analysis of published microarray data; cited from earlier work
# [4] = test system: ER+ metastatic BC patient-derived samples; assay: ALDEFLUOR assay (ALDH enzymatic activity) in metastatic patient-derived cells; assay type: cell-based, human; settings: Tamoxifen 10^−6 M or Fulvestrant 10^−7 M, 7-9 days; seven out of nine patient samples
# Description: Metastatic samples (ascites or pleural effusions) were centrifuged at 1000 g for 10 minutes at 4° C. The cell pellets were diluted in PBS. Erythrocytes and leucocytes were removed using Lymphoprep (Axis-Shield) and CD45-negative magnetic sorting (Miltenyi Biotec), respectively. Cells were cultured in adherence for 7-9 days in DMEM/F-12 medium, GlutaMAX (Gibco) with 10% FBS (Gibco), 10 μg/ml insulin (Sigma), 10 μg/ml hydrocortisone (Sigma) and 5 ng/ml epidermal growth factor (EGF, Sigma), in 10^−6M 4-OH-tamoxifen (Sigma, H7904), 10^−7M fulvestrant (ICI 182780, TOCRIS, 1047) or ethanol (control).
# Dissociated single cells were suspended in Aldefluor assay buffer containing an ALDH substrate, bodipyaminoacetaldehyde (BAAA) at […], and incubated for 45 min at 37° C. To distinguish between ALDH-positive and -negative cells, a fraction of cells was incubated under identical conditions in the presence of a 2-fold molar excess of the ALDH inhibitor, diethylaminobenzaldehyde (DEAB). Mouse cells were excluded from the FACS analysis with anti-mouse MHC Class I (H-2Kd) antibody conjugated with Pacific Blue (BioLegend, 116616). 7-aminoactinomycin D (7AAD, BD) was added for dead cell exclusion. Data were acquired on a LSR II (BD) flow cytometer and analysed using the BD FACSDiva™ software.
# [5] = test system: patient-derived ER+ tumour cells; assay: Mammosphere self-renewal of patient-derived ER+ tumour cells; assay type: cell-based, human; settings: 10^−6 M 4-hydroxy-tamoxifen vs ethanol control; secondary mammospheres 7-9 days
# ER+ BC = assay: Tamoxifen trial study (SBII:2a), survival stratified by ALDH1; assay type: in vivo, human; settings: 322 pre-menopausal ER+ BC patients; 2 years adjuvant tamoxifen vs no systemic treatment; ALDH1 dichotomised at median
SMILES,CBF1-Notch transcriptional activity [1],mammosphere and tumor formation (CD44^+CD24^low+ BCSCs),levels of the active NOTCH4 intracellular domain [2],HEY1 and HES1 expression [3],expression of the ALDH1A1 gene in breast tumors (ALDH1A1),ALDH enzymatic activity [4],mammosphere self-renewal [5],survival benefit from tamoxifen by epithelial ALDH1 expression (ER+ BC)
CC(C)(C(=O)NCC(F)(F)C(F)(F)F)C(=O)N[C@@H]1C(=O)Nc2ccccc2-c2ccccc21 [RO4929097],inhibited,reduce,effective in reducing,inhibited,–,–,–,–
C[C@]12CC[C@@H]3c4ccc(O)cc4C[C@@H](CCCCCCCCC[S+]([O-])CCCC(F)(F)C(F)(F)F)[C@H]3[C@@H]1CC[C@@H]2O (stereo partly drawn) [fulvestrant],–,–,–,–,significantly increased,significant increase,–,–
"CC/C(=C(\c1ccccc1)c1ccc(OCCN(C)C)cc1)c1ccccc1 [tamoxifen, (Z)-2-[4-(1,2-diphenylbut-1-enyl)phenoxy]-N,N-dimethylethanamine]",–,–,–,–,–,significant increase,about two-fold,improvement in survival (ie. a response to treatment) was only seen in women with low epithelial ALDH1 expression
